# In patent US11116757B2 (priority 2015, dated 2021):
# pIC50: −log10 of the molar value.
# Biological target: DCN1-UBC12 interaction (Homo sapiens (Human), UniProt Q96GG9)
# Assay: biochemical
# Type: binding
# Conditions: Table 6, commercial compounds; read-out: TR-FRET IC50
# DCN1-UBC12 interaction, sequence (Q96GG9 60-248 limits assumed): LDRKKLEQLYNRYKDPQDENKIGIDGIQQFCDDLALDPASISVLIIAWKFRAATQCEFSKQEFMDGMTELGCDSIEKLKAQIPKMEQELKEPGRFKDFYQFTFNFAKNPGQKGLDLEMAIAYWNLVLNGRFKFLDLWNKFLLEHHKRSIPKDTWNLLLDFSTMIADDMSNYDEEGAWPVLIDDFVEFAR
row,Compound,pIC50
1,C=CCNC(=O)c1cnn(-c2ncc(C)c(-c3cccs3)n2)c1C [E59],< 4.17
2,CCCN1CCN(C(=O)c2cnn(-c3nccc(-c4cccs4)n3)c2C)CC1 [E60],< 4.17
3,CCN(CC)C(=O)c1cnn(-c2nccc(-c3cccs3)n2)c1C1CC1 [E61],< 4.15
4,CC(C)c1c(C(=O)N2CCN(C(C)C)CC2)cnn1-c1nccc(-c2cccs2)n1 [E62],< 4.11

# Same assay, conditions: Table 7, commercial compounds; read-out: TR-FRET IC50
row,Compound,pIC50
1,Cc1cccc(C(=O)NC2C(=O)Nc3c(c(C)nn3-c3ccccc3)C2c2ccc(C#N)cc2)c1 (centres unmarked) [F5],4.45
2,CSc1ccc(C2c3c(C)nn(C)c3NC(=O)C2NC(=O)c2cccc(C)c2)cc1 (centres unmarked) [F6],4.40
3,CSc1ccc(C2c3c(C)nn(C)c3NC(=O)C2NC(=O)c2cccc(C)c2)cc1F (centres unmarked) [F7],4.38
4,CCCOc1cc(C2c3c(C)nn(C)c3NC(=O)C2NC(=O)c2ccc(Cl)cc2)ccc1OC (centres unmarked) [F9],< 4.17
5,Cc1nn(C)c2c1C(c1cccc(F)c1)C(NC(=O)c1ccc(Cl)cc1)C(=O)N2 (centres unmarked) [F10],< 4.17
6,Cc1nn(C)c2c1C(c1ccc(C(C)(C)C)cc1)C(NC(=O)c1ccccc1)C(=O)N2 (centres unmarked) [F11],< 4.17
7,Cc1nn(C)c2c1C(c1ccc(Br)cc1)C(NC(=O)c1ccc(Cl)cc1)C(=O)N2 (centres unmarked) [F12],< 4.17
8,Cc1cccc(C(=O)NC2C(=O)Nc3c(c(C)nn3C)C2c2ccc(C(C)(C)C)cc2)c1 (centres unmarked) [F13],< 4.17
9,COc1ccc(C2c3c(C)nn(C)c3NC(=O)C2NC(=O)c2cccc(C)c2)cc1OC (centres unmarked) [F14],< 4.17
10,Cc1cccc(C(=O)NC2C(=O)Nc3c(c(C)nn3C)C2c2cccc(F)c2)c1 (centres unmarked) [F15],< 4.17
11,Cc1cccc(C(=O)NC2C(=O)Nc3c(c(C)nn3C)C2c2ccc(C(C)C)cc2)c1 (centres unmarked) [F16],< 4.17
12,Cc1cccc(C(=O)NC2C(=O)Nc3c(c(C)nn3C)C2c2ccc(F)c(Br)c2)c1 (centres unmarked) [F17],< 4.17
13,CCOc1ccc(C2c3c(C)nn(C)c3NC(=O)C2NC(=O)c2cccc(C)c2)cc1OC (centres unmarked) [F18],< 4.17
14,Cc1nn(-c2ccccc2)c2c1C(c1ccc(C(F)(F)F)cc1)C(NC(=O)c1ccccc1)C(=O)N2 (centres unmarked) [F19],< 4.17
15,COc1ccc(C2c3c(C)nn(C)c3NC(=O)C2NC(=O)c2ccc(OC)c(OC)c2)cc1F (centres unmarked) [F20],< 4.17
16,COc1cccc(C2c3c(C)nn(C)c3NC(=O)C2NC(=O)c2ccc(OC)c(OC)c2)c1 (centres unmarked) [F21],< 4.17
17,CCCOc1ccc(C2c3c(C)nn(C)c3NC(=O)C2NC(=O)c2cccc(C)c2)cc1OC (centres unmarked) [F22],< 4.17
18,CCOc1ccc(C2c3c(C)nn(C)c3NC(=O)C2NC(=O)c2cccc(C)c2)cc1 (centres unmarked) [F23],< 4.17
19,CCc1ccc(C2c3c(C)nn(C)c3NC(=O)C2NC(=O)c2ccc(OC)c(OC)c2)cc1 (centres unmarked) [F24],< 4.17
20,CCOc1ccc(C2c3c(C)nn(C)c3NC(=O)C2NC(=O)c2ccc(Cl)cc2)cc1OC (centres unmarked) [F25],< 4.17
21,Cc1nn(C)c2c1C(c1ccc(F)c(F)c1)C(NC(=O)c1ccc(Cl)cc1)C(=O)N2 (centres unmarked) [F26],< 4.17
22,COc1cccc(C2c3c(C)nn(C)c3NC(=O)C2NC(=O)c2cccc(C)c2)c1 (centres unmarked) [F27],< 4.17
23,Cc1nn(C)c2c1C(c1cccc(Cl)c1)C(NC(=O)c1ccc(Cl)cc1)C(=O)N2 (centres unmarked) [F28],< 4.17
24,COc1ccc(C2c3c(C)nn(C)c3NC(=O)C2NC(=O)c2ccccc2)cc1OC (centres unmarked) [F29],< 4.17
25,COc1ccc(C(=O)NC2C(=O)Nc3c(c(C)nn3C)C2c2ccc(Cl)c(Cl)c2)cc1OC (centres unmarked) [F30],< 4.17
26,COc1ccc(C2c3c(C)nn(C)c3NC(=O)C2NC(=O)c2ccc(Cl)cc2)cc1F (centres unmarked) [F31],< 4.17
27,Cc1cccc(C(=O)NC2C(=O)Nc3c(c(C)nn3C)C2c2cccc(C)c2)c1 (centres unmarked) [F32],< 4.17
28,Cc1cccc(C2c3c(C)nn(C)c3NC(=O)C2NC(=O)c2ccccc2)c1 (centres unmarked) [F33],< 4.10

# Same assay, conditions: read-out: TR-FRET IC50
row,Compound,pIC50
1,C=CC(=O)NCCCN(C(=O)Nc1cccc(C(F)(F)F)c1)C1CCN(C(C)CCC)CC1 (centres unmarked) [drawing 834],5.48
2,C=CC(=O)NCCN(C(=O)Nc1cccc(C(F)(F)F)c1)C1CCN(C(C)CCC)CC1 (centres unmarked) [drawing 835],4.47
3,CCCC(C)N1CCC(N(CCCNC(=O)CCl)C(=O)Nc2cccc(C(F)(F)F)c2)CC1 (centres unmarked) [drawing 836],< 4.28
